{
  "source": "paper PMC2011106",
  "about": "“Structure/activity relationships for the enhancement by electron-affinic drugs of the anti-tumour effect of CCNU” (British Journal of Cancer, 1982)",
  "key": {"KHT sarcoma": {"test_system": "KHT sarcoma", "assay": "regrowth-delay assay: enhancement of the anti-tumour effect of CCNU", "assay_type": "in vivo, C3H mice", "conditions": "for enhancement of CCNU response relative to MISO: 2.5 mmol/kg 30 min before 10 mg/kg CCNU; for sensitizer dose/response curve, activity: Fig. 4, various sensitizer doses; for growth delay, test compound given alone: without CCNU"}, "[1]": {"conditions": "for toxicity at 2.5 mmol/kg: 2.5 mmol/kg i.p.; for toxicity: dose not stated, tested at MTD"}, "RIF-1 sarcoma": {"test_system": "RIF-1 sarcoma", "design": "method as in Siemann (1982)", "conditions": "5 mmol/kg; ref Siemann (1982); cited from earlier work"}, "ascites L1210 leukaemia": {"test_system": "ascites L1210 leukaemia", "design": "method as in Klubes et al., 1979", "conditions": "mice; ref Klubes et al., 1979; cited from earlier work"}, "KHT tumour": {"test_system": "KHT tumour", "design": "method as in Rauth et al. (1978)", "conditions": "same tumour and mouse strain, similar timing; ref Rauth et al. (1978); cited from earlier work"}, "[2]": {"conditions": "at close to maximum tolerated dose (MTD, below 2.5 mmol/kg) 30 min before 10 mg/kg CCNU"}},
  "note": "Entries after “also recorded” stand apart in the source; their conditions may differ. Where a name gives a salt, the structure may show the parent alone. Read-outs that look alike come from different tables or passages of the source.",
  "data": [
    {"smiles": "O=C1c2ccccc2C(=O)c2cc(S(=O)(=O)O)ccc21", "note": "[anthraquinone sulphonate, anthraquinone-2-sulphonate]", "values": [
      {"measurement": "decrease in body temperature", "setting": "2.5 mmol/kg", "result": "5-6 °C"},
      {"measurement": "enhancement of CCNU response relative to MISO", "setting": "KHT sarcoma", "result": "reasonable activity"},
      {"measurement": "toxicity at 2.5 mmol/kg", "setting": "[1]", "result": "non-toxic"}
    ]},
    {"smiles": "CC1=C(C)C(=O)C(C)=C(C)C1=O", "note": "[duroquinone]", "values": [
      {"measurement": "enhancement of CCNU response", "setting": "KHT sarcoma; [2]", "result": "little or no activity"},
      {"measurement": "toxicity", "setting": "[1]", "result": "quite toxic"}
    ]},
    {"smiles": "Cc1ncc([N+](=O)[O-])n1CCO", "note": "[METRO, metronidazole]", "values": [
      {"measurement": "decrease in body temperature", "setting": "10 mmol/kg", "result": 10, "unit": "°C"},
      {"measurement": "enhancement of CCNU response relative to MISO", "setting": "KHT sarcoma", "result": "activities similar or even superior to MISO"},
      {"measurement": "tumour response", "setting": "KHT sarcoma; 10 mmol/kg + 10 mg/kg CCNU, Fig. 4", "result": "about the same as with 2-5 mmol/kg MISO"},
      {"measurement": "sensitizer dose/response curve, activity", "setting": "KHT sarcoma; 10 mg/kg CCNU", "result": "rather less active than MISO"}
    ]},
    {"smiles": "O=[N+]([O-])c1cncn1CCN1CCOCC1", "note": "[nimorazole]", "values": [
      {"measurement": "enhancement of CCNU response relative to MISO", "setting": "KHT sarcoma", "result": "activities similar or even superior to MISO"}
    ]},
    {"smiles": "Cn1cnc([N+](=O)[O-])c1S(=O)(=O)Oc1ccccc1", "note": "[NSC 38087]", "values": [
      {"measurement": "enhancement of CCNU response", "setting": "KHT sarcoma; [2]", "result": "little activity at MTD"},
      {"measurement": "toxicity at 2.5 mmol/kg", "setting": "[1]", "result": "toxic"},
      {"measurement": "toxicity", "setting": "[1]", "result": "highly toxic"}
    ]},
    {"smiles": "O=NN(CCCl)C(=O)NC1CCCCC1", "note": "[CCNU, 1-(2-chloroethyl)-3-cyclohexyl-1-nitrosurea]", "values": [
      {"measurement": "median growth delay", "setting": "KHT sarcoma; CCNU 20 mg/kg alone, 11 independent experiments", "result": 10, "unit": "days"}
    ]},
    {"smiles": "O=C(Cn1ccnc1[N+](=O)[O-])NCCO", "note": "[SR-2508]", "values": [
      {"measurement": "enhancement of RIF-1 tumour response to CCNU", "setting": "RIF-1 sarcoma", "result": "Some enhancement"}
    ]},
    {"smiles": "O=C(Cn1ccnc1[N+](=O)[O-])NCc1ccccc1", "note": "[BENZO, benznidazole]", "values": [
      {"measurement": "enhancement of CCNU response relative to MISO", "setting": "KHT sarcoma", "result": "most active"},
      {"measurement": "dose-modifying factor (DMF)", "setting": "KHT sarcoma; 2.5 mmol/kg + 10 mg/kg CCNU compared with 20 mg/kg CCNU alone", "result": "> 2"},
      {"measurement": "sensitizer dose/response curve, activity", "setting": "KHT sarcoma; 10 mg/kg CCNU", "result": "good activity at doses down to 0-05-0-1 mmol/kg"},
      {"measurement": "activity relative to MISO at low doses", "setting": "KHT sarcoma; low doses 0.1-0.9 mmol/kg, 10 mg/kg CCNU", "result": "considerably more active than MISO"}
    ]},
    {"smiles": "CCCC(C(=O)OCCN(CC)CC)(c1ccccc1)c1ccccc1", "note": "[SKF 525A, proadifen hydrochloride]", "values": [
      {"measurement": "effect on LD50 of methyl-CCNU", "setting": "ascites L1210 leukaemia", "result": "reducing the LD50"},
      {"measurement": "response of ascites L1210 leukaemia to methyl-CCNU", "setting": "ascites L1210 leukaemia", "result": "increased the response"},
      {"measurement": "enhancement of CCNU response", "setting": "KHT sarcoma; 0.13 mmol/kg, 10 mg/kg CCNU, 10 mg/kg", "result": "increased the anti-tumour effect of CCNU; also recorded: active"}
    ]},
    {"smiles": "NC(=O)c1cc(N2CC2)c([N+](=O)[O-])cc1[N+](=O)[O-]", "note": "[CB 1954, 2,4-dinitro-5-aziridinylbenzamide]", "values": [
      {"measurement": "enhancement of CCNU response", "setting": "KHT sarcoma; mouse, in vivo", "result": "no enhancement of CCNU response at MTD"},
      {"measurement": "growth delay, test compound given alone", "setting": "KHT sarcoma", "result": "about 1 day"},
      {"measurement": "toxicity at 2.5 mmol/kg", "setting": "[1]", "result": "toxic"},
      {"measurement": "toxicity", "setting": "[1]", "result": "rather toxic"}
    ]},
    {"smiles": "O=C1CN(/N=C/c2ccc([N+](=O)[O-])o2)C(=O)N1", "note": "[nitrofurantoin]", "values": [
      {"measurement": "enhancement of CCNU response", "setting": "KHT sarcoma; [2]", "result": "virtually inactive"},
      {"measurement": "toxicity at 2.5 mmol/kg", "setting": "[1]", "result": "toxic"}
    ]},
    {"smiles": "CC1=CC(=O)c2ccccc2C1=O", "note": "[menadione]", "values": [
      {"measurement": "enhancement of CCNU response", "setting": "KHT sarcoma; [2]", "result": "little or no activity"},
      {"measurement": "toxicity", "setting": "[1]", "result": "quite toxic"}
    ]},
    {"smiles": "O=[N+]([O-])c1nccn1CC(O)CN1CCCCC1", "note": "(stereo not shown) [compound 13]", "values": [
      {"measurement": "enhancement of CCNU response relative to MISO", "setting": "KHT sarcoma", "result": "Neither was more effective than MISO"},
      {"measurement": "enhancement of CCNU response relative to MISO", "setting": "KHT sarcoma; listed as Ro 03-8799", "result": "slightly less than MISO"}
    ]},
    {"smiles": "NC(=O)N/N=C/c1ccc([N+](=O)[O-])o1", "note": "[nitrofurazone]", "values": [
      {"measurement": "enhancement of CCNU response", "setting": "KHT sarcoma; [2]", "result": "reasonable activity; also recorded: reasonably active, but less than 2-5 mmol/kg MISO"},
      {"measurement": "toxicity at 2.5 mmol/kg", "setting": "[1]", "result": "toxic"}
    ]},
    {"smiles": "c1c[nH]cn1", "note": "[imidazole]", "values": [
      {"measurement": "enhancement of CCNU response", "setting": "KHT sarcoma; 5 mmol/kg (not shown), 10 mg/kg CCNU", "result": "ineffective"}
    ]},
    {"smiles": "O=[N+]([O-])c1nccn1CC(O)CO", "note": "(stereo not shown) [DEMIS, desmethylmisonida- zole]", "values": [
      {"measurement": "enhancement of CCNU response relative to MISO", "setting": "KHT sarcoma", "result": "considerably less active than MISO"},
      {"measurement": "in vivo radiosensitization", "setting": "KHT tumour", "result": "good radiosensitization"}
    ]},
    {"smiles": "COCC(O)Cn1ccnc1[N+](=O)[O-]", "note": "(stereo not shown) [MISO, misonidazole]", "values": [
      {"measurement": "decrease in body temperature", "setting": "mouse, in vivo", "result": "1-2"},
      {"measurement": "Activity Index (AI) for enhancement of CCNU effect", "setting": "KHT sarcoma; mouse, in vivo, 10 mg/kg", "result": 1}
    ]},
    {"smiles": "Cn1cnc([N+](=O)[O-])c1Sc1ncnc2nc[nH]c12", "note": "[azathioprine]", "values": [
      {"measurement": "enhancement of CCNU response", "setting": "KHT sarcoma; 1.4 mmol/kg, compared with 2.5 mmol/kg MISO, 10 mg/kg CCNU", "result": "superior to 2-5 mmol/kg MISO"},
      {"measurement": "enhancement of CCNU response", "setting": "KHT sarcoma; [2]", "result": "more active than MISO"},
      {"measurement": "growth delay, test compound given alone", "setting": "KHT sarcoma", "result": "about 1 day"},
      {"measurement": "toxicity at 2.5 mmol/kg", "setting": "[1]", "result": "toxic"}
    ]}
  ]
}
